Residues, ends and D or L forms follow the SMILES beside them. *: point of attachment. Cbz = O=C(OCc1ccccc1)*; CH2F = FC*
Assays:
caspase-3 [1] = test: Quantification of caspase-3 activation using BRET-approach of AbRGT in MCF-7 cells transiently transfected with pCMV-caspase-3-GGSRLuc 8.6; type: cell-based, human; conditions: STS 1 μM for 4 h; transiently transfected MCF-7 cells; Rh-VAD-FMK probe; untreated control 11±9.2
Description: To determine the specific caspase-3 activation, pCMV-caspase-3-GGSRLuc 8.6 plasmid was overexpressed in the MCF-7 cell line since it is caspase-3 null. The cells were subjected to treatment with Staurosporine (STS) (1 μM) for 4 h for the induction of apoptosis. […] Subsequently, cells were incubated with ABFP, Rh-VAD-FMK probe (BRET acceptor) for the labeling of PoI, and other proteases of the same family. The RLuc 8.6 substrate coelenterazine h was added to the cells, and the average radiance was recorded in the donor emission channel, RLuc 8.6 (520-540 nm), and the acceptor emission channel, rhodamine (580-600 nm) channel. The BRET measurements were done by calculating the mBRET values for the STS treated versus untreated samples using the following equation.^7 Here, acceptor and donor is represented by (A) and (D), respectively.

caspase-3 [2] = target: T1, caspase-3 (Homo sapiens, UniProt P42574); test: Screening protease inhibitors by BRET-approach of AbRGT in 96 well plates, caspase-3 RLuc transfected MCF-7 cells; type: cell-based
T1 construct: expressed in transfected cells; host or cells: MCF-7 (caspase-3 null); 2 in A4
T1 sequence (P42574 29-175 limits assumed): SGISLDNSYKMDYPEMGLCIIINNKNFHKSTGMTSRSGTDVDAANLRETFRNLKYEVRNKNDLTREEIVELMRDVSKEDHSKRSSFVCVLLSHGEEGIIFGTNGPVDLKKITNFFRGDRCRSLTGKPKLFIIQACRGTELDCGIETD
T1 sequence (P42574 176-277 limits assumed): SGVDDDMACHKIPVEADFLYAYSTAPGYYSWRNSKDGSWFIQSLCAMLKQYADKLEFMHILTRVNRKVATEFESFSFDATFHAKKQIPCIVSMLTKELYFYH
Description: To show BRET-approach of AbRGT can be used for the high-throughput screening of inhibitors four different inhibitors; Z-VAD-FMK, C-inhibitor-II, E-64, and Q-VD-OPh were selected. Z-VAD-FMK, E-64, and Q-VD-OPh are irreversible inhibitors, while cpm-VAD-CHO is a reversible inhibitor. Z-VAD-FMK and Q-VD-OPh are widely known pan-caspase inhibitors that inhibit caspases with a different mechanism.
For inhibitor screening in a high-throughput format, caspase-3 RLuc transfected MCF-7 cells in 96 well plates were treated with STS (1 μM) for 4 h. Subsequently, after STS treatment, cells were incubated with Z-VAD-FMK or E64 or Q-VD-OPh inhibitors at two different concentrations (25 or 50 μM) for 1 h. Cells were then labeled with the Rh-VAD-FMK probe for 1 h, followed by the addition of coelenterazine h. Immediately after coelenterazine h addition, average radiance was recorded in the donor emission and the acceptor emission channel. The BRET measurements were done by calculating the mBRET values of each sample.

caspase-3 [3] = test: Quantification of caspase-3 activation in Caspase-3 RLuc expressing stable MCF-7 clone no. 2 by BRET-approach of AbRGT; type: cell-based, human
Description: Luciferase activity in the MCF7 Caspase3-GGS-RLuc8.6 clone no. 2, 3, 4 was measured by the addition of luciferase substrate, coelentrazine. Immediately after substrate addition, average radiance value was recorded and plotted as a bar graph (FIG. 4.8). […] The caspase-3 activity in the clone 2 cells further quantified by the BRET-approach of AbRGT. MCF-7 Caspase3-GGS-RLuc8.6 clone no. 2 cells were treated with increasing concentration (0, 50, 100, and 200 nM) of STS for 4 h. Subsequently, cells were incubated with Rh-VAD-FMK probe for 1 h followed by the addition of coelentrazine h. Immediately after substrate addition, average radiance was recorded at donor and acceptor filters and the mBRET values were calculated and plotted as a bar graph (FIG. 9).

caspase-3 [4] = target: T1, caspase-3; test: Effect of protease inhibitor on STS dependent caspase activation (BRET based AbRGT, Rh-VAD-FMK probe); type: cell-based; conditions: STS 0-4 μM followed by 1 h treatment with 50 μM Z-VAD-FMK; transiently transfected cells
Description: To check the effect of protease inhibitor Z-VAD-FMK on caspase activation, the pCMV-caspase-3-GGS-RLuc8.6 transiently transfected cells were treated with increasing concentration of STS(0-4 μM) followed by 1 h treatment of 50 μM of Z-VAD-FMK. The caspase3 activation was checked by BRET based AbRGT approach by using Rh-VAD-FMK probe. […] Thus we can use the BRET-approach of AbRGT to screen caspase inhibitors and activators. (FIG. 6).

## CN[C@@H]1C[C@H]2O[C@@](C)([C@@H]1OC)n1c3ccccc3c3c4c(c5c6ccccc6n2c5c31)C(=O)NC4 [STS, Staurosporine]
caspase-3 [1]
  mBRET value (indirect readout of specific caspase-3 activation): 60±0.4
caspase-3 [2]; STS 1 μM for 4 h, no inhibitor, 96 well plate
  mBRET value of the sample in the absence of inhibitor: 60±0.4
caspase-3 [3]; 0, 50, 100 and 200 nM STS for 4 h, clone no. 2
  change of mBRET values with increasing STS concentration: increase
caspase-3 [3]; 200 nM STS for 4 h, MCF-7 Caspase3-GGS-RLuc8.6 clone no. 2
  increase in mBRET as compared to the untreated cells: ~4 fold

## CC(C)[C@H](NC(=O)c1ccc2ccccc2n1)C(=O)N[C@@H](CC(=O)O)C(=O)COc1c(F)cccc1F [Q-VD-OPh]
caspase-3 [2]; STS 1 μM 4 h, then inhibitor 25 or 50 μM for 1 h
  mBRET values as compared to Z-VAD-FMK inhibitor: higher

## COC(=O)C[C@H](NC(=O)[C@H](C)NC(=O)[C@@H](NC(=O)OCc1ccccc1)C(C)C)C(=O)CF [Z-VAD-FMK] (Cbz-Val-Ala-Asp(OMe)-CH2F)
caspase-3 [4]
  effect on caspase activation in presence of STS compared to only STS treated cells: inhibits the caspase activation
